# Reference: patent US20240408005A1, “USE OF CALCIUM SENSING RECEPTOR ANTAGONISTS FOR TREATING OCULAR DISORDERS” (The Regents of the University of California, priority 2023, published 2024)
# How the values were obtained:
# CFTR = test: Ocular surface potential difference (OSPD), forskolin / CFTRinh-172 responses; type: in vivo, mouse
# From the text: (§1) Using pharmacological activators and inhibitors, OSPD allows studying activities of various ion channels/transporters in the ocular surface.^12 In these studies, baseline OSPD is established using a high Cl^− solution that mimics the tear film. OSPD changes induced by amiloride (ENaC inhibitor) indicates Na^+ transport via ENaC. Similarly, OSPD changes induced by forskolin (cAMP agonist) and CFTRinh-172 (CFTR inhibitor) indicates Cl^− secretion via cAMP-activated Cl^− channels and particularly CFTR. Lastly, OSPD changes induced by Ca^2+ agonist ATP indicates Cl^− secretion mediated by CaCCs.
# Sequential perfusion of the ocular surface with solutions containing amiloride (ENaC inhibitor), forskolin (cAMP agonist), CFTRinh-172 (CFTR inhibitor), and ATP (Ca^2+ agonist) thus allows determining activities of ENaC, CFTR, and CaCC ion channels, respectively (FIG. 4A).
# The compositions of perfusion solutions follow the solutions used in the standardized human nasal and ocular potential difference protocol.^12,13 Solutions #1-3 (high Cl^−, amiloride, and low Cl^−, respectively) were made in 1-liter batches, pH balanced to 7.4, and filtered in a sterile environment prior to refrigeration and used within 3 months. Solution #1 (high Cl^−) contained 1 L Ringer's injection (containing 147 mM NaCl, 2 mM CaCl2), 4 mM KCl, 2.4 mM K2HPO4, 0.4 mM KH2PO4, and 1.2 mM MgCl2. 100 μM amiloride was added to Solution #1 to create Solution #2 (amiloride). Solution #3 (low Cl^−) was identical to Solution #1, except NaCl was replaced with sodium gluconate. Cinacalcet (CaSR agonist) and NPS-2143 (CaSR antagonist) were purchased from Tocris Bioscience (Minneapolis, MN, USA). All other chemicals were purchased from Sigma-Aldrich (St. Louis, MO, USA).
# Ocular surface potential difference (OSPD) and tear fluid volume measurements were performed in mice with topically applied cinacalcet (CaSR activator) and NPS-2143 (CaSR inhibitor). Mice were anesthetized with isoflurane and body temperature was maintained at 37° C. via a heating pad. As described previously,^12,14,15 open-circuit transepithelial potential differences were measured in response to serial perfusions of different isoosmolar (310 mOsm/kg H2O) solutions over the ocular surface at 5-10 ml/min. The measuring electrode was in contact with the perfusion catheter which was carefully positioned using a three-axis micromanipulator directly above the mouse ocular surface and the reference electrode was grounded via a 23-gauge butterfly needle agar bridge inserted subcutaneously in the back. Measuring and reference electrodes consisted of Ag/AgCl with 3 M KCl agar bridges, and both electrodes were connected to an ISO-Z headstage, BMA-200 high-impedance amplifier/voltmeter, and PowerLab analog-to-digital converter (ADInstruments; Colorado Springs, CO, USA) connected to a computer (FIG. 1). Each solution was perfused onto the ocular surface using a gravity perfusion system (ALA Scientific; Farmingdale, NY, USA) for 1-3 minutes until a stable OSPD reading was obtained.
# [1] = Tear fluid volume by endodontic absorbent paper point tear test (EAPPTT); type: in vivo, BALB/c mice; conditions: for EAPPTT wetting length: 0.001% single 10 μL dose, baseline 2.3±0.2 mm
# Description: […] All mice were kept at ambient conditions (approximately 50% humidity and 21° C.) and provided unrestricted access to food and water.
# [2] = in vivo; cited from earlier work
# ENaC = test: Ocular surface potential difference (OSPD), amiloride-induced depolarization; type: in vivo, mouse; conditions: topical, 100 μM amiloride, 0-30 μM cinacalcet in all solutions
# From the text: as §1, with “CaCCs. […]” for “CaCCs.”
# (§2) Ocular surface potential difference (OSPD) and tear fluid volume measurements were performed in mice with topically applied cinacalcet (CaSR activator) and NPS-2143 (CaSR inhibitor). […] As described previously,^12,14,15 open-circuit transepithelial potential differences were measured in response to serial perfusions of different isoosmolar (310 mOsm/kg H2O) solutions over the ocular surface at 5-10 ml/min. […] Each solution was perfused onto the ocular surface using a gravity perfusion system (ALA Scientific; Farmingdale, NY, USA) for 1-3 minutes until a stable OSPD reading was obtained.
# CaCC = test: Ocular surface potential difference (OSPD), ATP-induced hyperpolarization; type: in vivo, mouse
# From the text: as §1, with “CaCCs. […]” for “CaCCs.”
# as §2
# mouse ocular surface = test: Baseline ocular surface potential difference (OSPD); type: in vivo; conditions: topically administered, mice
# From the text: as §1, with “CaCCs. […]” for “CaCCs.”
# as §2
compound,measurement,setting,value
"CC(C)(Cc1ccc2ccccc2c1)NC[C@@H](O)COc1cccc(Cl)c1C#N [NPS-2143, 2-chloro-6-[(2R)-3-([1,1-dimethyl-2-(2-naphthalenyl)ethyl]amino)-2-hydroxypropoxy]benzonitrile]",reversal of response by CFTR inhibitor CFTRinh-172,"CFTR; 30 μM, 10 μM CFTRinh-172",partially reversed
same,hyperpolarization relative to subsequently applied maximal forskolin-induced hyperpolarization,"CFTR; 30 μM, 10 μM forskolin",70%
same,hyperpolarization (OSPD change),CFTR; perfusion of ocular surface with 30 μM,−13 mV
same,increased tear fluid volume,"[1]; 0.001% or 30 μM, single 10 μL dose, 15 minutes after treatment",60%
same,EAPPTT wetting length,"[1]; 15 minutes after administration, mean±SEM",3.6±0.2 mm
same,EAPPTT wetting length,[1]; 8 hours after administration,3.6±0.2 mm
same,reversibility of effect on tear volume,[1]; 24 h after treatment,return of tear volume to near baseline values
same,increase of tear fluid volume,"[1]; single dose topical 0.001% or 30 μM, for at least eight hours",> 60%
O=c1ccn([C@@H]2O[C@H](COP(=O)(O)OP(=O)(O)OP(=O)(O)OP(=O)(O)OC[C@H]3O[C@@H](n4ccc(=O)[nH]c4=O)[C@H](O)[C@@H]3O)[C@@H](O)[C@H]2O)c(=O)[nH]1 [diquafosol],outcome of clinical trials for DED,[2],did not meet the primary endpoints
C[C@@H](NCCCc1cccc(C(F)(F)F)c1)c1cccc2ccccc12 [cinacalcet],effect on ENaC activity / Na+ absorption mediated by ENaC (amiloride-induced depolarization),ENaC,no effect
same,lower CFTRinh-172 response (CFTR activity),"CFTR; at 30 μM, 10 μM CFTRinh-172, FIG. 4E",up to 90%
same,lower forskolin response (CFTR activity),"CFTR; at 30 μM, 10 μM forskolin, FIG. 4D",up to 90%
same,inhibition of forskolin-induced Cl− secretion and CFTR activity,"CFTR; at 30 μM, concentration-dependent, topical, mice",up to 90%
same,inhibition of ATP response,"CaCC; 30 μM cinacalcet, 100 μM ATP, without prior forskolin and CFTRinh-172, FIG. 5",~50%
same,lower ATP-induced hyperpolarization (CaCC activity),"CaCC; 100 μM ATP added after forskolin and CFTRinh-172, FIG. 4F",90%
same,effect on baseline OSPD,mouse ocular surface,no effect
